# Experimental data published in US20080004290A1, “Anti-Cancer Agents” (THE UNIVERSITY OF QUEENSLAND, priority 2003, published 2008).
# Like-named read-outs stand apart in the source and are kept apart here.
# Tests used:
# [1] = test system: NFF, neonatal foreskin fibroblasts; experiment: Cell survival assay (clonogenic survival, SRB), normal cells; type: cell-based, human; details: SRB
# Experimental: (§1) The cytotoxicities of the compounds of the invention were determined by clonogenic survival of human cancer cells (MM96L, melanoma) and human normal cells (NFF, neonatal foreskin fibroblasts). Cells were incubated with the compounds at various concentrations of compound (0.01-10 μg/mL) for 24 hours, washed, and then grown for a further four days in the absence of hydroxamic acid before determining cell survival by cell count. The final readout involved staining with sulforhodamine B (SRB), a cost-effective method amenable to automation and high throughput analysis. At the technical level, “cell sensitivity” is often inferred from short term (1-2 day) observations such as apoptosis, which may not be a satisfactory model of clonogenic survival.
# (§2) Cell Lines and Culture Medium. All cell lines used in this study have been described previously (Parsons et al., 1986; Todaro et al., 1980; Glenn et al., 2004). All cell lines were cultured in 10% heat-inactivated foetal calf serum (CSL, Australia) in RPMI 1640 medium supplemented with 100 U/mL penicillin, 100 μg/mL streptomycin, and 3 mM HEPES at 5% CO2, 99% humidity at 37° C. Primary human fibroblasts were obtained from neonatal foreskins and cultured in the above medium. Routine mycoplasma tests were performed using Hoechst stain^i and were always negative.
# (§3) Cell Survival Assay. Cells were plated into 96-well microtitre plates at 5×10^3 cells/well, and allowed to adhere overnight. Test compounds were added to culture medium at the indicated concentrations, and plates incubated in the above conditions for 24 hours. Following this incubation period, compounds and media were removed, and replaced with fresh culture medium. Cells were then grown for a further 72 hours before assay using sulforhodamine B (SRB; Sigma, St. Louis, Mo.) as previously described. Briefly, the culture medium was removed from the 96-well microtitre plates and the plates washed twice with phosphate buffered saline (PBS), before the cells were fixed with methylated spirits for 15 minutes. The plates were then rinsed with tap water and the fixed cells stained with 50 μL/well of SRB solution (0.4% sulforhodamine B (w/v) in 1% (v/v) acetic acid) over a period of 1 hour. The SRB solution was then removed from the wells and the plates rapidly washed two times with 1% (v/v) acetic acid. Protein bound dye was then solubilised with the addition of 100 μL of 10 mM unbuffered Tris, and incubated for 15 min at 25° C. Plates were then read at 564 nm on a VERSA max tunable microplate reader (Molecular Devices, Sunnyvale, Calif.).
# MM96L melanoma cells = experiment: Cell survival assay (clonogenic survival, SRB); type: cell-based, human; details: for Selectivity: IC50 (NFF)/IC50 (MM96L); for SI (Selectivity Index = IC50 (NFF)/IC50 (MM96L)): NFF vs MM96L
# Experimental: as §1, §2, §3
# [2] = Table 8, 24 hours with compound, further growth, read-out: IC50 (μM) NFF
# [3] = Table 8, 24 hours with compound, further growth, SRB, read-out: IC50 (μM) MM96
# [4] = NFF normal fibroblasts, 24 h with compound, further 72 h growth, read-out: IC50 (uM) NFF
# [5] = MM96L melanoma, 24 h with compound, further 72 h growth, SRB, read-out: IC50 (uM) MM96L
# [6] = Homo sapiens, MM96L, most preferred compounds, exemplary examples, read-out: potency of IC50 against the MM96 melanoma cells
# [7] = Homo sapiens, Fibroblast, NFF normal fibroblasts, 24 h with compound, further 72 h growth, read-out: IC50 (uM) NFF
# [8] = Homo sapiens, MM96L, MM96L melanoma, 24 h with compound, further 72 h growth, SRB, read-out: IC50 (uM) MM96L
Compound,SI (Selectivity Index = IC50 (NFF)/IC50 (MM96L)) (MM96L melanoma cells),"IC50 [1, 7]",IC50 (MM96L melanoma cells; [8]),other results
CN(C)c1ccc(C(=O)N[C@@H](CSCCCC(=O)NO)C(=O)NCc2ccc(C(=O)Nc3ccc(-c4ccccc4)cc3)cc2)cc1 [Example 111],,,,"IC50 [1, 2]: 1.11 µM; IC50 (MM96L melanoma cells; [3]): 0.51 µM; Selectivity (MM96L melanoma cells; Table 8): 2.2"
CN(C)c1ccc(C(=O)NC(CSCCCC(=O)NO)C(=O)NCc2ccc(C(=O)NC(c3ccccc3)C(O)c3ccccc3)cc2)cc1 (centres unmarked) [Example 112],,,,"IC50 [1, 2]: 14.3 µM; IC50 (MM96L melanoma cells; [3]): 2.87 µM; Selectivity (MM96L melanoma cells; Table 8): 5.0"
CN(C)c1ccc(C(=O)N[C@@H](CSCCCC(=O)NO)C(=O)NCc2ccc(C(=O)NCc3nc4ccccc4[nH]3)cc2)cc1 [Example 113],,,,"IC50 [1, 2]: 15.8 µM; IC50 (MM96L melanoma cells; [3]): 3.96 µM; Selectivity (MM96L melanoma cells; Table 8): 4.0"
CN(C)c1ccc(C(=O)N[C@@H](CSCCCC(=O)NO)C(=O)NCc2ccc(C(=O)Nc3ccc4cn[nH]c4c3)cc2)cc1 [Example 114],,,,"IC50 [1, 2]: 12.2 µM; IC50 (MM96L melanoma cells; [3]): 1.5 µM; Selectivity (MM96L melanoma cells; Table 8): 8.1"
CN(C)c1ccc(C(=O)N[C@@H](CSCCCC(=O)NO)C(=O)NCc2ccc(C(=O)Nc3cccc4cccnc34)cc2)cc1 [Example 115],,,,"IC50 [1, 2]: 1.35 µM; IC50 (MM96L melanoma cells; [3]): 0.56 µM; Selectivity (MM96L melanoma cells; Table 8): 2.4"
CN(C)c1ccc(C(=O)N[C@@H](CSCCCC(=O)NO)C(=O)NCc2ccc(C(=O)Nc3ccc4ncccc4c3)cc2)cc1 [Example 116],,,,"IC50 [1, 2]: 5.57 µM; IC50 (MM96L melanoma cells; [3]): 2.23 µM; Selectivity (MM96L melanoma cells; Table 8): 2.5"
CN(C)c1ccc(C(=O)N[C@@H](CSCCCC(=O)NO)C(=O)NCc2ccc(C(=O)NC3CCCC3)cc2)cc1 [Example 117],,,,"IC50 [1, 2]: 5.27 µM; IC50 (MM96L melanoma cells; [3]): 1.19 µM; Selectivity (MM96L melanoma cells; Table 8): 4.4"
CN(C)c1ccc(C(=O)N[C@@H](CSCCCC(=O)NO)C(=O)NCc2ccc(C(=O)Nc3cccc4c3CCCC4)cc2)cc1 [Example 118],,,,"IC50 [1, 2]: 3.78 µM; IC50 (MM96L melanoma cells; [3]): 1.17 µM; Selectivity (MM96L melanoma cells; Table 8): 3.2"
CN(C)c1ccc(C(=O)N[C@@H](CSCCCC(=O)NO)C(=O)NCc2ccc(C(=O)Nc3ccccc3Cc3ccccc3)cc2)cc1 [Example 120],,,,"IC50 [1, 2]: 2.32 µM; IC50 (MM96L melanoma cells; [3]): 1.02 µM; Selectivity (MM96L melanoma cells; Table 8): 2.4"
CN(C)c1ccc(C(=O)N[C@@H](CSCCCC(=O)NO)C(=O)NCc2ccc(C(=O)Nc3ccccc3)cc2)cc1 [Example 121],,,,"IC50 [1, 2]: 11.6 µM; IC50 (MM96L melanoma cells; [3]): 1.41 µM; Selectivity (MM96L melanoma cells; Table 8): 8.2"
CN(C)c1ccc(C(=O)N[C@@H](CCCCCC(=O)NO)C(=O)NCc2ccccc2)cc1 [Example 122],7.8,,,"IC50 [1, 4]: 12 ± 2 µM; IC50 (MM96L melanoma cells; [5]): 1.6 ± 0.3 µM"
CN(C)c1ccc(C(=O)N[C@@H](CCCCCC(=O)NO)C(=O)NCc2ccccc2)cc1 [Example 123],6.0,,,"IC50 [1, 4]: 1 ± 0.1 µM; IC50 (MM96L melanoma cells; [6]): ≤ 0.5 µM; IC50 (MM96L melanoma cells; [5]): 0.16 ± 0.08 µM"
CN(C)c1ccc(C(=O)N[C@@H](CCCCCC(=O)NO)C(=O)NCc2ccccn2)cc1 [Example 127],9.1,33 ± 5 µM,3.6 ± 0.4 µM,
CN(C)c1ccc(C(=O)N[C@@H](CCCCCC(=O)NO)C(=O)NC2(Cc3ccccc3)CCCC2)cc1 [Example 128],3.5,3 ± 0.3 µM,0.9 ± 0.2 µM,
O=C(CCCCC[C@H](NC(=O)c1cc2ccccc2[nH]1)C(=O)NC1(Cc2ccccc2)CCCC1)NO [Example 129],1.7,1.6 ± 0.2 µM,0.9 ± 0.2 µM,
O=C(CCCCC[C@H](NC(=O)c1cc2ccccc2[nH]1)C(=O)NCc1ccccc1)NO [Example 130],5.0,,,"IC50 [1, 4]: 1.26 µM; IC50 (MM96L melanoma cells; [6]): ≤ 0.5 µM; IC50 (MM96L melanoma cells; [5]): 0.252 µM"
O=C(CCCCC[C@H](NC(=O)c1cc2ccccc2[nH]1)C(=O)NCc1ccccc1)NO [Example 131],7.1,,,"IC50 [1, 4]: 0.572 µM; IC50 (MM96L melanoma cells; [5]): 0.08 µM"
O=C(CCCCC[C@H](NC(=O)c1ccc(Br)cc1)C(=O)NCc1ccccc1)NO [Example 136],4.2,5.86 µM,1.99 µM,
O=C(/C=C/c1ccccc1)N[C@@H](CCCCCC(=O)NO)C(=O)NCc1ccccc1 [Example 137],8.7,,,"IC50 [1, 4]: 4.01 µM; IC50 (MM96L melanoma cells; [6]): ≤ 0.5 µM; IC50 (MM96L melanoma cells; [5]): 0.46 µM"

Compound,SI (Selectivity Index = IC50 (NFF)/IC50 (MM96L)) (MM96L melanoma cells),"IC50 [1, 7]",IC50 (MM96L melanoma cells; [8]),other results
O=C(/C=C/c1ccccc1)N[C@@H](CCCCCC(=O)NO)C(=O)NCc1ccccc1 [Example 138],4.5,,,"IC50 [1, 4]: 1.15 µM; IC50 (MM96L melanoma cells; [5]): 0.252 µM"
O=C(CCCCC[C@H](NC(=O)C12CC3CC(CC(C3)C1)C2)C(=O)NCc1ccccc1)NO [Example 139],1.8,,,"IC50 [1, 4]: 7.13 µM; IC50 (MM96L melanoma cells; [5]): 3.95 µM"
O=C(CCCCC[C@H](NC(=O)Cc1ccc(-c2ccccc2)cc1)C(=O)NCc1ccccc1)NO [Example 140],2.2,5.13 µM,2.36 µM,
O=C(CCCCC[C@H](NC(=O)c1cccs1)C(=O)NCc1ccccc1)NO [Example 141],5.8,5.2 µM,0.892 µM,
O=C(CCCCC[C@H](NC(=O)OCC1c2ccccc2-c2ccccc21)C(=O)NCc1ccccc1)NO [Example 142],1.7,5.37 µM,3.2 µM,
O=C(CCCCC[C@H](NC(=O)c1ccc(C(F)(F)F)cc1)C(=O)Nc1cccc2cccnc12)NO [Example 147],2.7,0.696 µM,0.258 µM,
CN(C)c1ccc(NC(=O)[C@H](CCCCCC(=O)NO)NC(=O)/C=C/c2ccccc2)cc1 [Example 150],1.5,0.24 µM,0.165 µM,
CN(C)c1ccc(NC(=O)[C@H](CCCCCC(=O)NO)NC(=O)OCc2ccccc2)cc1 [Example 151],1.1,0.65 µM,0.61 µM,
CN(C)c1ccc(NC(=O)[C@H](CCCCCC(=O)NO)NC(=O)c2ccc(C(F)(F)F)cc2)cc1 [Example 152],1.8,0.404 µM,0.222 µM,
O=C(/C=C/c1ccccc1)N[C@@H](CCCCCC(=O)NO)C(=O)NCc1ccccc1 [Example 153],1.4,,,"IC50 [1, 4]: 0.99 µM; IC50 (MM96L melanoma cells; [5]): 0.731 µM"
O=C(CCCCC[C@H](NC(=O)OCc1ccccc1)C(=O)NCc1ccccc1)NO [Example 154],1,1.52 µM,1.52 µM,
O=C(CCCCC[C@H](NC(=O)c1ccc(C(F)(F)F)cc1)C(=O)NCc1ccccc1)NO [Example 155],2.4,1.61 µM,0.665 µM,
O=C(CCCCCC(NC(=O)OCc1ccccc1)C(=O)NC1CCCc2ccccc21)NO (centres unmarked) [Example 156],1,,,"IC50 [1, 4]: 1.71 µM; IC50 (MM96L melanoma cells; [5]): 1.71 µM"
O=C(CCCCC[C@H](NC(=O)c1ccc(Br)cc1)C(=O)NCc1ccccn1)NO [Example 157],1.8,2.09 µM,1.15 µM,
O=C(CCCCC[C@H](NC(=O)c1ccc(Br)cc1)C(=O)NCc1ccncc1)NO [Example 158],6.3,5.24 µM,0.837 µM,
O=C(CCCCC[C@H](NC(=O)OCc1ccccc1)C(=O)NCc1ccncc1)NO [Example 159],5.4,23.3 µM,4.32 µM,
O=C(CCCCC[C@H](NC(=O)OCc1ccccc1)C(=O)Nc1ccc(-c2ccccc2)cc1)NO [Example 160],6.7,2.21 µM,0.331 µM,IC50 (MM96L melanoma cells; [6]): ≤ 0.5 µM
O=C(CCCCC[C@H](NC(=O)Cc1c[nH]c2ccccc12)C(=O)NCc1ccccc1)NO [Example 162],>7,> 2.22 µM,0.332 µM,IC50 (MM96L melanoma cells; [6]): ≤ 0.5 µM
O=C(CCCCC[C@H](NC(=O)CCCc1c[nH]c2ccccc12)C(=O)NCc1ccccc1)NO [Example 163],3.8,7.03 µM,1.84 µM,
